According to patent US20130330422A1, “METHODS FOR INCREASING INSULIN SENSITIVITY AND TREATING DIABETES WITH A BIOACTIVE CHROMIUM BINDING PEPTIDE” (The Board of Trustees of the University of Alabama, priority 2012, published 2013):
Non-standard residues stand in square brackets, D forms with d. No end group written: not given here. pGlu = O=C1CC[C@@H](C(=O)O)N1

Key:
[1] = Chromium binding studies: ultrafiltration equilibrium dialysis with 51CrCl3, Langmuir isotherms and Hill plots; settings: for Langmuir parameter Bt / Langmuir parameter K: Cr^3+ binding, 0.1 mol/L Hepes pH 7.4, 4° C.; for Co-operativity / Kf (Hill plot binding of formation constant) / n (Hill constant): chromium(III) binding, Hill plot; for chromium:oligopeptide ratio at the intersection point of the Langmuir isotherm (number of tightly binding ions): estimated from Langmuir isotherm
Experimental: A variation of the equilibrium dialysis method using an ultrafiltration device was utilized to examine the binding of chromium to the synthetic peptides. Aliquots of a mixture of CrCl3 and ^51CrCl3 were combined to generate different concentrations of Cr(III) while maintaining the synthetic peptide in solution at a constant volume. Known amounts (approximately 0.46 μmol) of peptide and 200 mL of 0.1 mol/L Hepes buffer (pH 7.4) were slowly stirred in an Amicon 8400 ultrafiltration unit (with a YC05 membrane) at 4° C. temperature for at least 12 h to achieve equilibration. The ultrafiltration unit was then pressurized, and effluent was collected. The content of free chromic ion in the effluent was determined by gamma counting using a Packard Cobra II auto-gamma counter. Chromium binding experiments were performed in triplicate, and the synthetic peptide used in at least one of the three sets of triplicates was from a different synthesis. As a control for the chromium-binding experiments, the ultrafiltration procedure was performed without peptide to establish the amount of chromium that adhered to the ultrafiltration unit; all experiments were corrected for this background. Linear regression analyses of the Langmuir isotherms and Hill plots were performed using SigmaPlot 11.0. The Cr concentration of solutions of isolated peptides were determined by graphite furnace atomic absorption spectroscopy using a PerkinElmer Analyst 400 atomic absorption spectrometer equipped with an HGA-900 graphite furnace and an AS-800 autosampler using a chromium hollow cathode lamp operating at 10 mA; a spectral bandwidth of 0.8 nm was selected to isolate the light at 353.7 nm. Chromium standard solution obtained from Perkin Elmer (Waltham, Mass.) was utilized to generate a standard curve.
Errors are presented throughout as standard deviations of the triplicate analyses. Doubly deionized H2O was used throughout. Amino acid analyses of samples were performed by the Protein and Separation Analysis Laboratory at Purdue University. Protein concentrations were determined by the fluorescamine method (Davis et al. “Isolation and characterization of a biologically active form of chromium oligopeptide from bovine liver,” Arch Biochem Biophys. 1997; 339:335-343.) Fluorescence measurements were obtained on a Jobin Yvon FluoroMax-3 fluorescence spectrophotometer. Ultraviolet-visible spectra were obtained using a Hewlett-Packard 8451A or a Beckman Coulter DU 800 spectrophotometer.
As chromium binding to the oligopeptide LMWCr is believed to be through only carboxylate residues and the heptapeptide pEEEEGDD (SEQ ID NO: 1) retains all the aspartate and glutamate residues in LMWCr, whether the heptapeptide can bind chromium in a similar fashion to LMWCr was investigated. The binding of chromium to bovine apoLMWCr prepared by the low pH EDTA method (Davis and Vincent), the heptapeptide pEEEEGDD (SEQ ID NO: 1), and two other acidic peptides was probed. […] The number of Cr^3+ ions binding to the peptides was estimated using Langmuir isotherms. For the Langmuir isotherms of Cr^3+ binding to all the synthetic peptides, Cr binding to apoLMWCr can be represented by two intersecting straight lines with different slopes (FIG. 5)). […] Negative values of the Langmuir parameters Bt and K were found for each peptide: apoLMWCr, −2.69 mmol/g and −109 L/mmol, respectively; EDGEECDCGE (SEQ ID NO: 41), −6.97 mmol/g and −354 L/mmol; DGEECDCGEE (SEQ ID NO: 42), −62.9 mmol/g and −9.94 L/mmol; and pEEEEGDD (SEQ ID NO: 1), −0.73 mmol/g and −151 L/mmol.
To further compare the binding properties between the synthetic peptides and apoLMWCr in CrCl3 solution, the method of Hill was applied to establish the degree of cooperativity between the covalent binding sites with the initial low amounts of substrate in solution, assuming covalent binding sites are occupied before surface adsorption occurs. The total number of tight binding sites established using the Langmuir isotherm was utilized. […]

[2] = Cr:peptide binding ratio after exposure to 10 equivalents of Cr^3+ and G-10 size exclusion chromatography; settings: 0.1 mol/L hepes pH 7.4, overnight at 4° C., G-10 separation
From the text: The intersection points in the isotherms allow the number of tightly binding ions to be estimated. For bovine apoLMWCr, the chromium:oligopeptide ratio at the intersection point is 3.6, which is very close to the average amount of chromium bound to isolated bovine LMWCr, which is 3.5. Titration of bovine LMWCr with Cr^3+ has previously shown that four Cr^3+ ions are required to restore bioactivity. For the synthetic peptides, the intersection points occurred at Cr:peptide ratios of approximately 2, 2, and 4 for EDGEECDCGE (SEQ ID NO: 41), DGEECDCGEE (SEQ ID NO: 42) and pEEEEGDD (SEQ ID NO: 1) (FIG. 6), respectively. This is consistent with the Crpeptides binding ratios found after exposing the peptides to solutions of 10 equivalents of Cr^3+ (CrCl3.6H2O in 0.1 mol/L hepes buffer, pH 7.4 overnight at 4° C.) and separating the peptides from the excess Cr^3+ by G-10 size exclusion chromatography (EDGEECDCGE (SEQ ID NO: 41): 2.0(±0.3), and DGEECDCGEE (SEQ ID NO: 42): 2.0±0.3). A change in mode from specific coordinate covalent binding to just electrostatic absorption on the peptide surface is proposed. Thus, the inflection point of the isotherm for the peptide pEEEEGDD (SEQ ID NO: 1) implies that it tightly binds four Cr^3+ ions. […] The two visible features are readily assigned to d→d transitions from the Cr^3+ centers. […]

[3] = Insulin-stimulated glucose uptake in vivo, tail-vein peptide then intraperitoneal glucose; settings: peptide 5 μmol/kg alone or premixed with equimolar chromium via tail-vein; glucose 2 g/kg intraperitoneally
Experimental: The peptide (5 μmol/kg) either alone or premixed with equimolar concentrations of chromium were injected via tail-vein, immediately following which glucose (2 g/kg body weight) was administered intraperitoneally (*p<0.05, n=6-8).

Akt = assay: Insulin-stimulated phosphorylation of Akt in cultured myotubes (Western blot); type: cell-based; settings: peptide and/or chromium (1 μM) 1 h, insulin 5 nm
Experimental: Myotubes were incubated with the peptide and/or chromium (1 μM) for 1 h and stimulated with insulin 5 nm. (A) Representative Western blots of p^308-Akt and Akt, and (B) Densitometric quantitation of the Western blots. Data represent mean±SE (n=3), *p<0.001 versus control **p<0.01 compared to insulin-stimulated glucose uptake (panel A). *p<0.001 versus control ^#p<0.05 compared to insulin-stimulated glucose uptake in untreated cells (panel B).

cultured myotubes = assay: Insulin-stimulated 2-[3H]-deoxyglucose uptake in cultured myotubes; type: cell-based; settings: peptide 10 mM and/or chromium 1 h, insulin 50 nM 10 min; 10 mM or 25 mM glucose overnight
Experimental: Myotubes were incubated with the peptide (10 mM) and/or chromium for 1 h and stimulated with insulin (50 nM) for 10 min, and 2-[^3H]-deoxyglucose uptake was assessed. Data represent mean counts per minute (cpm)/mg protein/30 min±SE (n=3). *p<0.01 compared to basal low glucose conditions. **p<0.01 compared to insulin-stimulated low glucose conditions. ***p<0.001 compared to high glucose conditions.

| Substance | Langmuir parameter Bt [1] | Langmuir parameter K [1] | Co-operativity [1] | Kf (Hill plot binding of formation constant) [1] | n (Hill constant) [1] | chromium:oligopeptide ratio at the intersection point of the Langmuir isotherm (number of tightly binding ions) [1] | Cr:peptide binding ratio [2] | insulin-stimulated glucose uptake in vivo [3] | insulin-stimulated phosphorylation of Akt (p308-Akt) (Akt) | insulin-stimulated glucose uptake in cultured myotubes (cultured myotubes) |
| --- | --- | --- | --- | --- | --- | --- | --- | --- | --- | --- |
| DGEECDCGEE [synthetic acidic peptide with the same amino acid composition as bovine LMWCr] | -62.9 mmol/g | -9.94 L/mmol | Positively co-operative | 1.01 × 10^11 (mol/L)^−2 | 1.85 | approximately 2 | 2.0±0.3 | – | – | – |
| [pGlu]EEEGDD | -0.73 mmol/g | -151 L/mmol | Positively co-operative | 1.92 × 10^20 (mol/L)^−4 | 3.82 | ~4 | – | – | – | – |
| EDGEECDCGE [synthetic acidic peptide with the same amino acid composition as bovine LMWCr] | -6.97 mmol/g | -354 L/mmol | Positively co-operative | 1.48 × 10^23 (mol/L)^−2 | 3.64 | approximately 2 | 2.0(±0.3) | – | – | – |
| EEEEGDD | – | – | – | – | – | – | – | augments insulin-stimulated glucose uptake in vivo | improves insulin-stimulated phosphorylation of Akt | augments insulin-stimulated glucose uptake |
